Where two headings read alike, the source gives them in different places.

Data set [1] can be described thus: Cell toxicity, cell growth inhibition assay (MTT uptake). The settings on record: monkey, Vero cells, 50% inhibition of cell viability at 96 hours, read-out: cell toxicity (CCID₅₀). It is filed as cell-based. The procedure: Cell toxicity is assessed in a cell growth inhibition assay. Subconfluent cultures of Vero cells grown on 96-well microtiter dishes are exposed to different dilutions of drug, and cell viability determined daily on replicate cultures using uptake of a tetrazolium dye (MTT). The concentration requried for a 50% inhibition of cell viability at 96 hours is termed CCID₅₀.

The test system of another data set is Hepatitis B Virus (HBV). The experiment in a line: Anti-HBV activity in HBV producer cell line HepG2 2.2.15: reduction of extracellular virion DNA and intracellular replicative intermediates. It is filed as cell-based. The protocol:
The human HBV producer cell line of HepG2, 2.2.15, described and characterized by Sells et al., PNAS 84:1005, 1987 and J. Virol. […] This cell line was utilized in vitro to identify compounds with anti-HBV activity.
Monolayer cultures were treated with 1-100µM of the active compound 1-(β-D-arabinofuranosyl)-5-prop-1-ynyluracil, for ten days. Supernatant media containing extracellular virion DNA (Dane particles) were harvested on day ten, treated with proteinase K (1 mg/mL) and sodium dodecyl sulfate (1%), and incubated at 50°C for one hour. DNA was extracted with equal volumes of phenol followed by chloroform and then precipitated by ammonium acetate and propanol. The DNA precipitate was dissolved and collected on nitrocellulose using the procedure of Schleicher and Schuell (S & S, 10 Optical Ave., Keene, NH 03431, Publication #700, 1987), and treated as described by Southern, J. Mol. Biol. 98:503, 1975. Cells were harvested, and the intracellular DNA. was obtained after cell lysis with guanidine isothiocyanate. The intracellular DNA was handled in the same manner as the extracellular DNA. After precipitation by ammonium acetate and propanol, the intracellular DNA precipitate was dissolved, cut by restriction endonuclease, Hind III, applied to agarose gel and then treated as described by Southern to determine the quantity of replicative intermediate forms. The antiviral effect of the drug was determined by measuring a reduction of the amount of Dane particles extruded into the culture medium (extracellular DNA) and a similar decrease in tie intracellular replicative intermediates (intracellular replicative form).

Setting [2] is: HepG2 2.2.15, 240 h, Expt. 5, HepG2 2.2.15 cells, ten days, read-out: Percent (Reduction) Inhibition of Hepatitus B Virus DNA in Extracellular Media.
[3] abbreviates: HepG2 2.2.15, 240 h, Expt. 6, HepG2 2.2.15 cells, ten days, read-out: Percent (Reduction) Inhibition of Hepatitus B Virus DNA in Extracellular Media.

Consider `CC#Cc1cn([C@@H]2O[C@H](CO)[C@@H](O)[C@@H]2O)c(=O)[nH]c1=O` [1-(β-D-Arabinofuranosyl)-5-prop-1-ynyluracil], for which the CC50 at 96 h in data set [1] is above 500 µM. The “Percent (Reduction) Inhibition of Hepatitus B Virus DNA in Extracellular Media” value in the data set on Hepatitis B Virus (HBV) (Expt. 5, 11μM, HepG2 2.2.15 cells, ten days) was “N.I”; in the data set on Hepatitis B Virus (HBV) (Expt. 6, 37μM, HepG2 2.2.15 cells, ten days) it was “N.I”. The inhibition at 33 µM was 87.4% with Hepatitis B Virus (HBV) (setting [2]) and 89.1% in the data set with Hepatitis B Virus (HBV) (setting [3]). Further, the inhibition at 37 µM in the data set with Hepatitis B Virus (HBV) (HepG2 2.2.15, 240 h, Expt. 5, 37μM, HepG2 2.2.15 cells, ten days, read-out: Percent (Reduction) Inhibition of Hepatitus B Virus DNA in Extracellular Media) worked out at 55.3%. Besides, the inhibition at 100 µM stood at 94.4% with Hepatitis B Virus (HBV) (setting [2]); 98.5% with Hepatitis B Virus (HBV) (setting [3]); 88% with Hepatitis B Virus (HBV) (Hepatitis B virus, HepG2 2.2.15, 240 h, Expt. 5, value in parentheses, read-out: % reduction in intracellular hepatitis B virus DNA replicative form); 95.3% in the data set on Hepatitis B Virus (HBV) (Hepatitis B virus, HepG2 2.2.15, 240 h, Expt. 6, value in parentheses, read-out: % reduction in intracellular hepatitis B virus DNA replicative form); 42% in the data set on Hepatitis B Virus (HBV) (Hepatitis B virus, HepG2 2.2.15, Expt.7, read-out: Percent Inhibition of Hepatitis B Specific Intracellular Replicative Form (RF) DNA). Also, the inhibition at 11 µM with Hepatitis B Virus (HBV) (HepG2 2.2.15, 240 h, Expt. 6, 11μM, HepG2 2.2.15 cells, ten days, read-out: Percent (Reduction) Inhibition of Hepatitus B Virus DNA in Extracellular Media) came out at 71.5%. Besides, the inhibition at 1 µM in the data set with Hepatitis B Virus (HBV) (Hepatitis B virus, HepG2 2.2.15, Expt.7, 1μM, read-out: Percent Inhibition of Hepatitis B Specific Intracellular Replicative Form (RF) DNA) is 35%. Besides, the inhibition at 10 µM with Hepatitis B Virus (HBV) (Hepatitis B virus, HepG2 2.2.15, Expt.7, 10μM, read-out: Percent Inhibition of Hepatitis B Specific Intracellular Replicative Form (RF) DNA) was determined as 33%.
